Measured values published in PMC3032679 (Journal of Translational Medicine, 2011).
Entries after “also recorded” stand apart in the source; their conditions may differ. Peptide text beside a SMILES is read from it.

Legend:
[1] = system: normal and cancer cell lines; experiment: Cell viability assay, normal and cancer cell lines (panel); type: cell-based, human; conditions: 72 h
Text: (§1) The following human tumor and normal cell lines were obtained from the American Type Culture Collection (ATCC): human breast cancer (BT-20, T47D, and MDA-MB-231), lung cancer (A549), kidney cancer (Caki-1), prostate cancer (LNCap), gastric cancer (OE19) and lung fibroblast (MRC5). Human pancreatic cancer cell line (BXPC3) was purchased from the European Collection of Cell Culture (ECACC). Human embryonic kidney cell line (HEK293T) and human normal pancreatic epithelial (PE) cell line ACBRI 515 were purchased from RIKEN cell bank and DS Pharma Biomedical, respectively. Cells were cultured in RPMI-1640 (BT-20, MDA-MB-231, T47D, LNCap, OE19, and BXPC3), MEM (MRC5 and A549), DMEM (HEK293T and Caki-1) or CSC (PE) containing 10% fetal bovine serum (FBS), 100 μg/ml penicillin, and 100 μg/ml streptomycin.
(§2) Cells were seeded on to 96-well plates at 2000-3000 cells/well and incubated with the test peptide. After incubation, an assay for cell viability was carried out using Living Cell Count Reagent SF (Nacalai Tesque) according to the manufacturer's protocol. Absorbance was measured at a wavelength of 450 nm using a 96-well microplate reader (GE Healthcare).
(§3) Data represent the mean ± SD from experiments performed in triplicate.

HEK293T cells = experiment: Cell viability assay, HEK293T; type: cell-based, human; conditions: Antp-TPR; normal cells HEK293T; mean of three independent experiments each in triplicate; 72 h (Figure 2)
Text: as §1, §2, §3

PE cells = experiment: Cell viability assay, PE; type: cell-based, human; conditions: Antp-TPR; normal cells PE; mean of three independent experiments each in triplicate; 72 h (Figure 2)
Text: as §1, §2, §3

BT20 cells = experiment: Cell viability assay, BT20; type: cell-based, human; conditions: Antp-TPR; breast cancer BT20; mean of three independent experiments each in triplicate; 72 h (Figure 2)
Text: as §1, §2, §3

MDA-MB-231 cells = experiment: Cell viability assay, MDA-MB-231; type: cell-based, human; conditions: Antp-TPR; breast cancer MDA-MB-231; mean of three independent experiments each in triplicate; 72 h (Figure 2)
Text: as §1, §2, §3

BXPC3 cells = experiment: Cell viability assay, BXPC3; type: cell-based, human; conditions: Antp-TPR; pancreatic cancer BXPC3; mean of three independent experiments each in triplicate; 72 h (Figure 2)
Text: as §1, §2, §3

A549 cells = experiment: Cell viability assay, A549; type: cell-based, human; conditions: Antp-TPR; lung cancer A549; mean of three independent experiments each in triplicate; 72 h (Figure 2)
Text: as §1, §2, §3

liver, kidney, and lung = experiment: Histologic examination of organs (H & E); type: in vivo, athymic nude mice; conditions: 5 mg/kg i.v., nine times, versus saline
Text: (A) BXPC3 pancreatic cancer cells were implanted subcutaneously into athymic nude mice. […] Each group had six animals (n = 6), and experiments were repeated twice. Data are expressed as mean ± SD. […] Scale bars, 25 μm. (C) Histologic examination after treatment with Antp-TPR hybrid peptide.

[2] = Observation of behavior and appetite after treatment; type: in vivo; conditions: mice
MRC5 cells = conditions: Antp-TPR; normal cells MRC5; mean of three independent experiments each in triplicate; 72 h (Figure 2)
Text: as §1, §2, §3

Caki-1 cells = conditions: Antp-TPR; renal cancer Caki-1; mean of three independent experiments each in triplicate; 72 h (Figure 2)
Text: as §1, §2, §3

LNcap cells = conditions: Antp-TPR; prostate cancer LNcap; mean of three independent experiments each in triplicate; 72 h (Figure 2)
Text: as §1, §2, §3

OE19 cells = conditions: Antp-TPR; gastric cancer OE19; mean of three independent experiments each in triplicate; 72 h (Figure 2)
Text: as §1, §2, §3

[3] = system: normal human cell lines (HEK293T, MRC5, and PE); experiment: Cell viability assay, normal cell lines (panel); conditions: identical concentrations, 72 h
Text: as §1, §2, §3

[4] = system: interaction of Hsp90 with the TPR2A domain of Hop; experiment: SPR competition: Hsp90 binding to TPR2A domain of Hop; type: biochemical, human; conditions: Hsp90 1 μM over immobilized TPR2A (5000 RU), peptide 1.4, 14, 140, 280, 700 μM and 1 mM
Experimental: To confirm the presence of purified protein, SDS/PAGE was performed according to the method of Laemmli.
SPR experiments were performed with the Biacore biosensor 3000 system as described previously. Human recombinant Hop, FKBP5, PP5, and purified TPR2A domain of Hop proteins were immobilized on the surface of CM5 sensor chips via N-hydroxysuccinimide and N-ethyl-N'-(dimethylaminopropyl)carbodiimide activation chemistry according to the manufacturer's instructions. Biotin-conjugated TPR peptide (biotin-TPR) was immobilized on the surface of streptavidin (SA) sensor chip. […] HBS-EP buffer (0.01 M Hepes/0.15 M NaCl/0.005% Tween 20/3 mM EDTA, pH 7.4) was used as a running buffer during the assay to inhibit non-specific binding. Data analysis was performed using BIA evaluation version 4.1 software. […] SPR signals obtained in the absence of competing peptides were used as a reference (100% binding) to normalize values obtained in the presence of peptides.
The SPR signal in the absence of competing peptides was used as a reference (100% binding).

Compound: RQIKIWFQNRRMKWKKRKFSAAIGYNKY [Antp-scramble, scramble peptide fused to Antennapedia helix III]
- effect on viability / cytotoxicity [1]: no effect on these cell lines

Compound: CC[C@H](C)[C@H](NC(=O)[C@H](CCCNC(=N)N)NC(=O)[C@H](C)NC(=O)[C@H](Cc1ccc(O)cc1)NC(=O)[C@H](C)NC(=O)[C@H](CCCCN)NC(=O)[C@H](CCCCN)NC(=O)[C@H](CCCCN)NC(=O)[C@H](Cc1c[nH]c2ccccc12)NC(=O)[C@H](CCCCN)NC(=O)[C@H](CCSC)NC(=O)[C@H](CCCNC(=N)N)NC(=O)[C@H](CCCNC(=N)N)NC(=O)[C@H](CC(N)=O)NC(=O)[C@H](CCC(N)=O)NC(=O)[C@H](Cc1ccccc1)NC(=O)[C@H](Cc1c[nH]c2ccccc12)NC(=O)[C@@H](NC(=O)[C@H](CCCCN)NC(=O)[C@@H](NC(=O)[C@H](CCC(N)=O)NC(=O)[C@@H](N)CCCNC(=N)N)[C@@H](C)CC)[C@@H](C)CC)C(=O)NCC(=O)N[C@@H](CC(N)=O)C(=O)N[C@@H](CO)C(=O)N[C@@H](Cc1ccc(O)cc1)C(=O)N[C@@H](Cc1ccccc1)C(=O)N[C@@H](CCCCN)C(=O)O [Antp-TPR] (H-RQIKIWFQNRRMKWKKKAYARIGNSYFK-OH)
- IC50 (HEK293T cells): > 100 µM
- IC50 (PE cells): > 100 µM
- IC50 (BT20 cells): 37.4 µM
- IC50 (MDA-MB-231 cells): 56.9 µM
- IC50 (BXPC3 cells): 44.8 µM
- IC50 (A549 cells): 65.9 µM
- histologic examination of liver, kidney, and lung (liver, kidney, and lung): equally unremarkable in the saline or hybrid peptide-treated mice; also recorded: did not cause serious damages to the main organs (liver, kidney, and lung) and normal tissues
- abnormal behaviors or losing of appetite [2]: any abnormal behaviors or losing of appetite after the treatment with this peptide was not also observed
- IC50 (MRC5 cells): > 100 µM
- IC50 (Caki-1 cells): 47.9 µM
- IC50 (LNcap cells): 56.7 µM
- IC50 (OE19 cells): 33.4 µM
- effect on viability of normal cells [3]: did not apparently reduce the viability; also recorded: less cytotoxic to normal cells

Compound: KAYARIGNSGGG [TPR mutant 2, TPR with last three amino acids, Tyr-Phe-Lys, replaced with three Gly residues]
- competition for interaction of Hsp90 with TPR2A domain of Hop [4]: did not demonstrate any protein interaction when analyzed at up to millimolar concentrations

Compound: CC[C@H](C)[C@H](NC(=O)[C@H](CCCNC(=N)N)NC(=O)[C@H](C)NC(=O)[C@H](Cc1ccc(O)cc1)NC(=O)[C@H](C)NC(=O)[C@@H](N)CCCCN)C(=O)NCC(=O)N[C@@H](CC(N)=O)C(=O)N[C@@H](CO)C(=O)N[C@@H](Cc1ccc(O)cc1)C(=O)N[C@@H](Cc1ccccc1)C(=O)N[C@@H](CCCCN)C(=O)O [TPR]
- effect on viability / cytotoxicity [1]: no effect on normal or cancer cells; also recorded: no cytotoxicity

Compound: RQIKIWFQNRRMKWKKKAYARIGNSGGG [Antp-TPR mutant 2]
- selective antitumor activity [1]: did not show selective antitumor activities

Compound: KAYAAAGNSYFK [TPR mutant 1]
- competition for interaction of Hsp90 with TPR2A domain of Hop [4]: did not demonstrate any protein interaction when analyzed at up to millimolar concentrations

Compound: RKFSAAIGYNKY [TPR scramble, scramble peptide of TPR]
- competition for interaction of Hsp90 with TPR2A domain of Hop [4]: did not demonstrate any protein interaction when analyzed at up to millimolar concentrations

Compound: RQIKIWFQNRRMKWKKKAYAAAGNSYFK [Antp-TPR mutant 1]
- selective antitumor activity [1]: did not show selective antitumor activities
